By CC50 is commonly meant the concentration that lowers cell viability or growth by half. What is called IC50 is the point on the concentration scale where inhibition reaches its midpoint.

Structures can show the parent of a compound that is named as a salt.

The values that follow come from PMC8305768, “Design, Synthesis and Antiparasitic Evaluation of Click Phospholipids” (Molecules, 2021).

The target of one data set is T1, CYP1A2 (Homo sapiens, UniProt P05177).
T1 construct: purchased Corning Inc; host or cells: baculovirus-infected insect cells
T1 sequence (P05177 2-516 limits assumed): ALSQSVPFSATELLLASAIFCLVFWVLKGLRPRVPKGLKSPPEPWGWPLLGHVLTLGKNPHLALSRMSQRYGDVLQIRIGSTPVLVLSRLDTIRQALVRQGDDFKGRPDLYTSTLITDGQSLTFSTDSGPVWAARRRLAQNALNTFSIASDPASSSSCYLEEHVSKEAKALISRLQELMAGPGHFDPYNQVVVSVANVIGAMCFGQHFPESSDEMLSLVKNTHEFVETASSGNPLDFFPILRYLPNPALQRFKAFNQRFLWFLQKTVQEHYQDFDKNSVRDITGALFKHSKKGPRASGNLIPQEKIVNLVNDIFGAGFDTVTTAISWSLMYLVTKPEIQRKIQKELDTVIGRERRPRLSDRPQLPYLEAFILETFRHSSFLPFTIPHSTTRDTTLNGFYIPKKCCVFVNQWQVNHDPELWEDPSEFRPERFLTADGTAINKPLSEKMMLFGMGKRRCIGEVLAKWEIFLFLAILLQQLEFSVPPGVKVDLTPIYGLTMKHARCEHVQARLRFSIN
The experiment in a line: Cytochrome P450 inhibition assay (P450-Glo) CYP1A2. Conditions: compounds 10 μM; miltefosine 10 μM or 1 μM. The class given is in vitro ADME. The text has this:
Cytochrome (CYP) P450 inhibition assay: These assays made use of microsomal preparations of CYP450 (1A2, 2C9, 2C19, 2D6 and 3A4) from baculovirus-infected insect cells (Corning Inc., Corning, NY, USA) and cytochrome c reductase (and cytochrome b5 for CYP450 3A4). For detection of CYP450 activity, the luminescence-based P450-Glo (Promega Corp., Madison, WI, USA) assay system was used that contained a luminogenic CYP450 substrate, lyophilized luciferin detection reagent and reconstitution buffer. The substrates were luciferin derivatives of CYP450-specific substrates that produce (4S)-4,5-dihydro-2-(6-hydroxybenzothiazolyl)-4-thiazolecarboxylic acid (D-luciferin) after cleavage by CYP450 (CYP450 3A4, luciferin-IPA; CYP450 2C19, luciferin-H EGE; CYP450 2C9, luciferin-H; CYP450 2D6, luciferin-ME EGE; CYP450 1A2, luciferin-1A2). CYP450 reactions were initiated by addition of the NADPH regeneration system to the enzyme–substrate mixture with the luciferin detection reagent stopping the reaction and the D-luciferin being converted to oxyluciferin under the production of light being proportional to the CYP450 activity. The CYP450 assays were performed using the Tecan Fluent liquid-handling automation platform (Tecan Group Ltd., Mannedorf, Switzerland) in the 384-well assay format. Compounds were added into an empty 384-well plate (100 nL/well in 1% v/v DMSO) using the Echo 550 Liquid Handler followed by the addition of 5 μL/well of the CYP450/substrate mixture and incubation for 30 min at 37 °C, after which the reaction was initiated by the addition of the 5 μL/well NADPH regeneration system. After a further 30-min incubation at 37 °C, the CYP450 reaction was stopped and the luciferase reaction was simultaneously initiated by addition of 10 μL/well of luciferin detection reagent, followed by an additional 30-min incubation at 37 °C. The luminescence signal was detected using an Infinite M1000 PRO plate reader (Tecan Group Ltd., Mannedorf, Switzerland). The NCs yielded 0% inhibition (1% v/v DMSO) and standard CYP450 specific inhibitors were used as positive controls, yielding 100% inhibition (CYP450 1A2, alpha-naphthoflavone; CYP450 2C9, sulfaphenazole; CYP450 2C19, troglitazone; CYP450 2D6, quinidine; CYP450 3A4, ketoconazole).
Data analysis: The screening data were obtained in triplicate and analysed using ActivityBase (IDBS, Guildford, UK), and outlier elimination in the control wells was performed using the 3-sigma method. Unless stated, dose–response experiments were performed in the 11-point format with the IC50 value, Hill slope, minimum signal and maximum signal for each dose–response curve obtained using a four-parameter logistic fit in the XE module of ActivityBase (IDBS).

Data set [1] is described as follows: Cytotoxicity against THP-1 macrophages (MTT). The class given is cell-based. The conditions noted are these: human, PMA-differentiated THP-1 macrophages, read-out: Toxicity CC50 ± SD Or CC50 Interval Estimation. As to the method: The effect of compounds selected compounds on THP-1-derived macrophages was assessed by the colorimetric MTT assay (3-(4,5-dimethylthiazol-2-yl)-2,5-diphenyl tetrazolium bromide). Briefly, 1 × 10^5 THP-1 cells/mL were differentiated into macrophages by addition of 20 ng/mL of phorbol-myristate 13-acetate (PMA, Sigma, Saint Louis, MI, USA) for 18 h, followed by replacement with fresh medium for 24 h. Cells were incubated with 100 µL of compounds ranging from 100 to 1 µM after dilution in the RPMI complete medium containing a maximum amount of 1% DMSO. After incubation for 72 h, the medium was removed and 100 µL of 0.5 mg/mL MTT solution diluted in RPMI was added. Plates were incubated for an additional 4 h to allow viable cells to convert MTT into a purple formazan product. Solubilization of formazan crystals was achieved by the addition of 2-propanol and absorbance was read at 570 nm using a Synergy 2 Multi-Mode Reader (Biotek, Winooski, VT, USA). Cytotoxicity was evaluated by the determination of the CC50 value (drug concentration that reduced the percentage of viable cells in 50%) and calculated by non-linear regression analysis using GraphPad Prism version 8.1.1 for Windows (GraphPad Software, San Diego, CA, USA).

The subject of data set [2] is L. donovani strain BPK190 amastigotes. The experiment in a line: Activity against L. donovani intramacrophage amastigotes (bone marrow-derived macrophages, qPCR). The class given is cell-based, Leishmania donovani. The conditions noted are these: Leishmania donovani, Macrophage, infected bone marrow-derived macrophages, 48 h, read-out: Parassite Load Reduction (%). As to the method:
L. donovani strain BPK 190 [55] was cultivated at 25 °C in modified Medium199 (Sigma-Aldrich, with 20% heat-inactivated FCS, 40 mM HEPES pH 7.4, 0.2% NaHCO3, 100 μM adenin, 1.2 μg/mL 6-biopterin and 10 μg/mL haem, with 1 × Pen/Strep/l-glutamine (Sigma, Saint Louis, MI, USA), pH 7.0).
Activity against L. donovani strain BPK190 was tested in vitro using bone marrow-derived macrophages as host cells. Infection was established for 24 h prior to the addition of compounds from 10 mM stocks in DMSO. Parasite load was determined 48 h later by quantifying Leishmania actin DNA relative to mouse actin DNA using real time qPCR as described.

Data set [3] deals with T. cruzi Y strain intracellular amastigotes. The experiment in a line: Activity against T. cruzi Y strain intracellular amastigotes (HG39 cell-line, parasite load). Conditions: Trypanosoma cruzi, read-out: Parassite Load Reduction (%). The class given is cell-based. As to the method:
T. cruzi epimastigotes (Y strain) were obtained by axenic cultivation in the LIT medium, supplemented with 10% FBS (Cultilab, São Paulo, Brazil). Cultures were maintained at […] for 4–5 days until they reached the log growth phase. New cultures were made every 4 days from the initial inoculum of 2 × 10^6 parasites/mL. T. cruzi trypomastigotes (Y strain) were maintained in culture by the infection of LLC-MK2 (ATTC-CCL7) epithelial cells. This cell line was cultured in […] tissue culture bottles (TPP) in RPMI 1640 medium (Gibco), (Thermo Fischer Scientific, Carlsbad, CA, USA) supplemented with 10% FBS (Gibco) (Thermo Fischer Scientific, Carlsbad, CA, USA). Cultures were maintained at 37 °C under 5% CO2 atmosphere, and RPMI 1640 medium and SFB were exchanged every 48 h. After confluence, the cultures were treated with 1 mL of a mixture of trypsin and versene (Sigma, São Paulo, Brazil) (0.2 and 0.002%, respectively). After 24 h, a subconfluence culture was infected with the trypomastigotes in the approximate proportion of 10:1 parasites/cell. From five to seven days post infection, the trypomastigote stage was obtained from the culture supernatant. Alternatively (Figure 2), T. cruzi strain Y was maintained as previously described.

In data set [4] the test system is T. b. brucei L427 WT bloodstream form. In words: Activity against T. brucei bloodstream forms (resazurin-based assay). Conditions: Trypanosoma brucei, 72 h. The class given is cell-based. As to the method: Trypanosoma brucei brucei Lister 427 bloodstream forms were grown at 37 °C, 5% CO2 in complete HMI-9 medium supplemented with 10% foetal calf serum (FCS) and 100 UI/mL of penicillin/streptomycin. […] The efficacy of compounds against T. brucei bloodstream forms was evaluated using a modified resazurin-based assay previously described. Mid-log bloodstream forms were added to an equal volume of serial dilutions of compounds in supplemented complete HMI-9 medium at a final cell density of 5 × 10^3/mL. Following incubation for 72 h at 37 °C 5% CO2, 20 μL of a 0.5 mM resazurin solution was added and plates were incubated for a further 4 h under the same conditions. Fluorescence was measured at 540 nm and 620 nm excitation and emission wavelength, respectively, using a Synergy 2 Multi-Mode Reader (Biotek, Winooski, VT, USA).

With `C[N+](C)(C)CCOP(=O)([O-])OCCCCCCCCCCCn1cc(CCCCCCCCC(=O)OCc2ccccc2)nn1` [Compound 30, 11-(4-(9-(benzyloxy)-9-oxononyl)-1H-1,2,3-triazol-1-yl)undecyl (2-(trimethyl ammonio)ethyl) phosphate inner salt], the “% inhibition ± SD at 10 μΜ CYP1A2” value on CYP1A2 was “–2.91%”. In data set [1], the CC50 at 72 h is over 100 µM. Further, the inhibition of growth at 5 µM in data set [2] was 0%. Besides, the inhibition of growth at 10 µM in data set [3] amounted to 69.7%.

In the case of `C[N+](C)(C)CCOP(=O)([O-])OCCCCCCCCCCCn1cc(CCCCCCCCN)nn1` [Compound 36, 11-(4-(8-aminooctyl)-1H-1,2,3-triazol-1-yl)undecyl (2-(trimethylammonio)ethyl) phosphate inner salt], on CYP1A2, the “% inhibition ± SD at 10 μΜ CYP1A2” value worked out at 3.18%. Moreover, the CC50 at 72 h in data set [1] is over 100 µM. Also, the inhibition of growth at 5 µM in data set [2] was 20.3%. In addition, in data set [4] (10 μM, read-out: Single Dose Assay 10μM Mean Inhibitory Activity (%) ± SD), the inhibition at 10 µM came out at 30 ± 7%. In addition, in data set [3], the inhibition of growth at 10 µM came out at 0%.

For `CC1CS(=O)(=O)CCN1/N=C/c1ccc([N+](=O)[O-])o1` (centres unmarked) [Nifurtimox, reference compound], the inhibition of growth at 10 µM in data set [3] came to 81.2%.

In the case of `N=C(N)c1ccc(OCCCCCOc2ccc(C(=N)N)cc2)cc1` [Pentamidine, reference compound], the IC50 in data set [4] (read-out: Dose Response Curves IC50 ± SD) worked out at 0.00155 ± 0.00024 µM.
